# Data from patent US10668081B2, “Prostamide-containing intraocular implant” (Allergan, Inc., priority 2013, dated 2020).
# What was measured:
# [1] = tested on: intraocular pressure in dogs; assay: IOP reduction after topical administration to normotensive dogs; assay type: in vivo, dog; details: topical 25 μL, 6 hours after administration
# Excerpt: (§1) A series of prostamides were selected as potential candidates for an intracameral biodegradable drug delivery system (e.g., an implant) and tested for their ability to lower IOP by direct administration to the aqueous humor (therefore, by intracameral administration). Table 1 lists the EC50 values (nM) obtained from the feline (cat) iris assay, calculated log P values (clog P), and IOP reduction values obtained after either topical or intracameral administration for different prostamides. Intracameral drug administration was accomplished by placing an infusion pump in the subcutaneous pocket in the neck of dogs with a cannula running into the anterior chamber of the eye. Test runs were carried out to measure and compare the concentration of the compound in the solution exiting the pump with that initially added to the pump in order to confirm the dosing level.
# [2] = tested on: intraocular pressure in dogs; assay: IOP reduction after intracameral administration by infusion pump in dogs; assay type: in vivo, dog; details: for Intracameral Administration (dogs) Max IOP reduction: infusion pump into anterior chamber, 2-3 weeks, vs baseline
# Excerpt: as §1
# [3] = molecular target: Prostamide/FP receptor (Felis catus, UniProt A0ABI7XJ69); assay: Cat iris sphincter assay (contraction of isolated feline iris sphincter muscle); assay type: cell-based
# Prostamide/FP receptor, sequence (A0ABI7XJ69 entry or part of it): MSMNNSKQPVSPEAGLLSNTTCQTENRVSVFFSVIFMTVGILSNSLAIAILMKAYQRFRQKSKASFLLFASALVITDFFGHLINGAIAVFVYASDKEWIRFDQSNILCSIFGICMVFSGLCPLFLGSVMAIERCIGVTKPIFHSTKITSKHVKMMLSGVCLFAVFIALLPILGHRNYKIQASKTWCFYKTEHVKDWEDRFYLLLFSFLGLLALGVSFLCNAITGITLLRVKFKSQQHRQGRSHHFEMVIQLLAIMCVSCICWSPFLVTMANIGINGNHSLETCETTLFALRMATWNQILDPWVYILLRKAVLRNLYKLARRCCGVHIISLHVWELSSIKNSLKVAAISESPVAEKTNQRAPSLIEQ
Structure (SMILES),Topical Administration (dogs) IOP reduction ([1]; concentration 0.03% (w/v)),Intracameral Administration (dogs) Max IOP reduction ([2]; dose 15 ng/day),"IOP reduction when administered intracamerally, compared with bimatoprost (in words) ([2]; normotensive dog eye, directly to the anterior chamber)",Topical Administration (dogs) IOP reduction ([1]; concentration 0.01% (w/v)),Intracameral Administration (dogs) Max IOP reduction ([2]; dose 108 ng/day),EC50 [3],Intracameral Administration (dogs) Max IOP reduction ([2]; dose 100 ng/day)
NC(=O)CCC/C=C\C[C@@H]1[C@@H](/C=C/[C@@H](O)CCc2cc(Cl)sc2Cl)[C@H](O)C[C@@H]1O [Compound 1],−5 mm Hg,~35%,reduces IOP effectively and much more efficiently than bimatoprost,,,,
"CCNC(=O)CCC/C=C\C[C@@H]1[C@@H](/C=C/[C@@H](O)CCc2ccccc2)[C@H](O)C[C@@H]1O [Compound 3, Bimatoprost]",,,,−3.6 mm Hg,~45%,,
CCNC(=O)CCC/C=C\C[C@@H]1[C@@H](/C=C/[C@@H](O)CCc2cc(Br)c(C)s2)[C@H](O)C[C@@H]1O [Compound 4],−3 mm Hg,<10%,,,,25 nM,
CCCCC[C@@H](/C=C/[C@@H]1[C@@H](C/C=C\CCCC(N)=O)[C@@H](O)C[C@H]1O)OC [Compound 5],,,,−3 to −4 mm Hg,,,~20%
